What all share (type): in vivo, human
Data set [1] deals with patients with ET. Kind of data set: Open-label extension of the Phase 2 trial (blinded six-week lead-in, week 14 assessment). Here is the method:
After the DB part of the trial was complete, participants were able to choose to enter the Extension part of the trial. Participants who chose to enter the Extension began receiving OL study drug for up to 12 months, or start of the cross-over period, after a 43-day Extension DB Lead-in Period, whichever was earlier. During this Extension DB Lead-in Period, participants who received placebo or 60 mg in the DB part of the trial titrated up to 100 mg in a DB fashion utilizing the same dose titration regimen as in the DB part of the trial. Participants who received 100 mg in the DB part of the trial continued to receive 100 mg in a blinded fashion until all participants were receiving Compound 1 100 mg QAM as of Day 99. Participants who were unable to tolerate fixed-dose titration to 100 mg during the Extension DB Lead-in Period were discontinued from the trial and asked to attend the Safety Follow-up/EOS-E Visit. After the Extension DB Lead-in Period, participants flexibly dosed with Compound 1 (20-100 mg) QAM at the discretion of the Investigator during the Extension OL Period until the start of the cross-over period. Participants who consented to participate in the separate LTSS were able to end participation in the current study after completing the End of Treatment Visit and join the LTSS at any point during the Extension OL Period.
All participants who continued into the Extension part of the trial participated in a 43 day Extension DB Lead-in Period so all participants could be titrated to the 100-mg dose in a blinded fashion (Table 2) before receiving open-label, flexible doses of Compound 1 (20-100 mg) for up to 12 months (Days 100-459) during the Extension OL Period.
Following completion of the initial 8 weeks double-blind treatment phase of the Phase 2 trial described in Example 1, eligible patients had the option to continue their access to Compound 1 in an open-label extension phase (OLE). Participants who continued to the open label extension (OLE) phase remained blinded for a six-week lead-in phase.
In the Extension part of the trial, measures of efficacy include analysis of change from baseline to Days 70, 84, 99, 129, 159, 189, 279, 369, and 459 in modified ADL, CGI-S, TETRAS-ADL total score, TETRAS-PS total score, TETRAS UL score, TETRAS CUL score, and CGI-I and PGI-C scores at Days 70, 84, 99, 129, 159, 189, 279, 369, and 459.
A total of 65 patients who completed the double-blinded portion of the Phase 2 trial described in Example 1 were eligible to participate in the OLE and completed the week 14 assessment. FIG. 21 is a bar graph showing change in mADL11 scores from baseline, by study week from week 8 to week 14. Patients who were eligible and continued on Compound 1 (n=39) experienced an additional mean improvement in mADL11 of 1.7 points from 3.09 at Weck 8 (95% CI: 0.98, 5.2) to 4.81 (95% CI: 2.38, 7.23) after 14 weeks of treatment. Patients who switched from placebo to Compound 1 treatment during the OLE 6-week lead-in (n=26) experienced mean improvement in mADL11 of 3.15 points from 1.21 at Week 8 (95% CI: −1.04, 3.46) to 4.36 (95% CI: 1.68, 7.05.

The subject of data set [2] is patients with ET. Kind of data set: Randomized withdrawal sub-study / blinded 6-week crossover period of the Phase 2 extension. The source says: At the re-randomization visit for the cross-over period, and every 7 days in that portion of the study, the treatment regimen was assigned by the IRT and dispensed by site pharmacist for direct-to-patient (DTP) shipping. In the cross-over period of the trial, all participants were centrally assigned to randomize to remain on the current regimen of Compound 1 or placebo using an IRT. After 3 weeks, participants receiving placebo were switched over to Compound 1 following the regimen described in Table 3. The IRT assigned treatment regimen based on the Tetras ADL response criteria after day 7.
The open-label protocol was amended to further assess the criteria to be used in the upcoming randomized withdrawal study in Phase 3 (as described in Example 3). In this sub-study, patients were re-randomized in a blinded-fashion to either receive placebo or continue to receive Compound 1. Twenty-one patients who completed assessments at week 14 of the Open Label Extension were eligible to participate in the blinded sub-study.
Patients were evaluated weekly over a total of 6 weeks, with 11 patients assigned to Compound 1 and 10 patients assigned to placebo for the initial 3-week period, crossing over to either placebo or Compound 1 for an additional 3-week period. Blinded rescue was triggered for patients on placebo if loss in the mADL11 exceeded 2 points at any timepoint.
The results of the Phase 2 trials with ulixacaltamie (see Examples 1 and 2) support the efficacy and safety of ulixacaltamide in patients with ET. […] In the double-blind (DB) portion of the Phase 2 study, the rescored TETRAS-ADL items 1-11 (mADL11) score decreased more in participants randomized to Compound 1 compared with placebo after 56 days of dosing, with least square mean (LSM standard error [SE]) scores of ([…] [0.81]) compared with placebo (−0.87 [0.95]). The LSM (95% confidence interval [CI]) treatment difference was −1.82 (95% CI: −3.565, −0.066; with a nominal p value of <0.05). In the Phase 2 extension period, 20 participants completed a blinded 6-week crossover period. Participants were randomized in blinded fashion to either 3 weeks of Compound 1 60 mg or placebo. Rescue treatment (Compound 1) was offered to participants if their mADL11 worsened by a preset threshold. […] None of the Compound 1-treated participants and 9 of 21 placebo-treated participants qualified for and received rescue treatment within the 3-week period.

Data set [3] in a line: Phase 1 trial: effect of a high-fat, high-calorie meal on pharmacokinetics. To be noted: 120 mg dose, steady state, healthy adult participants. On the procedure: The effect of a high-fat, high-calorie meal on the pharmacokinetics of Compound I was evaluated in healthy participants who had previously received Compound 1 under fasted conditions in a Phase 1 trial. The effect of a high-fat, high-calorie meal on the PK of Compound 1 was evaluated at the 120 mg dose level after healthy adult participants had titrated to reach steady-state exposure. Following administration of 120 mg dose in the fed state or fasted state, the maximum plasma drug concentration (Cmax) and AUC, values were similar. Based on this analysis, Compound 1 may be administered without regard to food.

Setting [4] is: patients who continued on Compound 1, n=39.
[5] abbreviates: patients who switched from placebo to Compound 1, n=26.
Where [6] appears, read: patients who switched from Compound 1 to placebo.

Entries after “also recorded” stand apart in the source; their conditions may differ.

Take `CC(C)(C)NC(=O)CN1CCC(CNC(=O)c2cc(F)cc(Cl)c2)CC1` [Compound 1, N-((1-(2-(tert-butylamino)-2-oxoethyl)piperidin-4-yl)methyl)-3-chloro-5-fluorobenzamide]: in data set [1] (setting [4]), the “Additional mean improvement in mADL11 from Week 8 to week 14” value was 1.7 points, the “mADL11 mean improvement from baseline after 14 weeks” value is given as 4.81 points and the “mADL11 mean improvement from baseline at Week 8” value is listed as 3.09 points. In data set [1] (setting [5]), the “Mean improvement in mADL11 from Week 8 during OLE 6-week lead-in” value turned out to be 3.15 points and the “mADL11 mean improvement from baseline after OLE 6-week lead-in” value worked out at 4.36 points. The Overall safety results in data set [1] (through 14 weeks of treatment) is recorded as “no change to the overall safety results”. The “Patients who maintained their mADL11 within 3-points compared to baseline” value in data set [2] (52% on placebo) was 85%. Moreover, in data set [2] (crossover period, Compound 1 60 mg, 11 of 21 on placebo), the “Participants with maintenance of response” value is recorded as 17 of 20. In data set [2] (in vivo), the Safety signals result is recorded as “No new safety signals emerged; also recorded: No new safety signal was identified”. Besides, in data set [2] (setting [6]), the “Average loss of effect in mADL11 per week” value stood at 47% and the “Mean loss of effect in mADL11” value is −1.15 points/week. Further, in data set [2] (periods receiving Compound 1), the “Improvement in global mean change in mADL11 per week” value amounted to 6% and the “Mean improvement in mADL11” value is 0.16 points/week. For the same compound, in data set [2] (within the 3-week period, 9 of 21 on placebo), the “Participants who qualified for and received rescue treatment” value was “None”. Moreover, in data set [3], the “AUC, fed state vs fasted state” value is recorded as “similar” and the “Cmax, fed state vs fasted state” value is “similar”.

The record behind these values is patent US20250387382A1, “METHODS OF TREATING ESSENTIAL TREMOR” (Praxis Precision Medicines, Inc., priority 2023, published 2025).
